Values of other authors, collected in patent US6689909B1, “Substituted N-phenyl 2-hydroxy-2-methyl-3,3,3-trifluoropropanamide derivatives which elevate pyruvate dehydrogenase activity” (AstraZeneca AB, priority 1999, dated 2004).

Key:
[1] = after repeated administration
PDH = conditions: single administration, 150 mg/kg, intraperitoneally

O=C(O)C(Cl)Cl [DCA, dichloroacetic acid]
plasma glucose [1]: significant decrease in plasma glucose | proportion of PDH in its active form (PDH): increased the proportion of PDH in its active form
